Data taken from patent publication US11957783B2, “Topical immunosensitizers to treat viral and fungal infections” (Squarex, LLC, priority 2018, dated 2024).

Tested on: peripheral blood mononuclear cells (PBMC)
Assay: Cytokine and immune-function gene expression of PBMC in vitro (qRT-PCR, 41 immune-related genes)
Assay type: cell-based, human
Details: Group A
Experimental: After a screening visit at which blood was drawn to test for IgG antibody against HSV-1 and subjects were interviewed for inclusion/exclusion criteria, selected subjects returned for blood draws on day 1. After the blood draw on day 1, subjects in group A only were dosed with SADBE. A petrolatum donut was applied with a cotton swab to form about a 1 cm diameter donut on skin on the inner aspect of the upper arm. Then a separate cotton swab was dipped in a 2% SADBE solution (w/v) in DMSO, and the swab was then used to apply about 10-20 mg of solution over about a 1 cm diameter circle within the petrolatum donut. Immediately after application, the application site was covered with TEGADERM. Subjects were advised to remove the TEGADERM and rinse and wipe the spot three hours later. The group A subjects then returned for blood draws on days 15 and 57 and were queried about adverse events on those dates.
PBMC were isolated using SepMate PBMC isolation tubes (Stem Cell Technologies, Vancouver, Canada) and Ficoll-Paque according to the manufacturer's instructions. PBMC were isolated and suspended in negative control medium at 2 million cells/ml. PBMC suspension (100 μL) was added to 100 μL of medium in quadruplicate in 96-well plates. The plates were prepared in advance and stored at −70° C. The wells were in five different conditions in quadruplicate with these final concentrations after addition of the 100 μL of PBMC suspension in negative control medium. • 1. Negative control in medium (RPMI with glutamine and pen/strep, supplemented with 10% human A/B serum). • 2. Medium plus 16 μg/ml protein from heat-inactivated HSV-1-infected Vero cell extracts. • 3. Medium plus heat-inactivated HSV-1 cell-free virus at a final 7.5 million pfu/ml. • 4. Medium plus Candida cell extract. (Greer item number M15A50, 20,000 pnu/ml allergenic extract mixed molds Candida albicans, was diluted 1/50 into medium). • 5. Positive control, medium plus 10 μg/ml concanavalin A.
Two plates were created for each subject at each collection point. One plate was incubated for 2 days at 37° C. in a humidified 5% CO2 atmosphere and then RNA was isolated from the pooled contents of the 4 wells of a given condition for a specific patient, and the RNA was stored at −70° C. and subsequently used for quantitative real time PCR analysis of gene expression of 41 immune-related genes.
As noted above, after 2 days of growth of the PBMC in a 37° C. humidified 5% CO2 incubator in a 96-well plate, four wells of a single condition (negative control, positive control, heat-inactivated HSV-1, HSV-1-infected cell extracts, or Candida extract) with cells from a single subject (200 μL in each well) were pooled, and the RNA was immediately isolated with Trizol reagent and chloroform by Qiagen RNeasy MiniElute clean up kit Qiagen cat #74204, according to manufacturer's instructions into a final volume of 13 μL, and then flash frozen on powdered dry ice, and stored at −70° C. in aliquots of 3 μL for RNA quantification and 10 μL for PCR analysis.
RNA was preamplified with the Qiagen RT2 PreAMP cDNA synthesis kit (Ref. 330451) and custom RT2 PreAmp primer mix (Ref. 330141) starting with about 50 ng RNA according to the procedure of RT preamp cDNA synthesis handbook date March 2011, pages 17-20. The amplification reactions (final 120 μL) were frozen at −70° C. and used for qPCR analysis the next day.
qPCR was done with the Qiagen RT PCR profiler gene analysis kit (catalog number 330451) using RT2 Sybr Green Rox qPCR Mastermix (24) (Part 330523) and Custom RT2 PCR array plates (Ref. 330171). For this 675 μL 2×RT2 SYBR green mastermix, 51 μL pre-AMP synthesis reaction, and 623 μL RNase free water were mixed, and then 25 μL of the mixture was added to 48 wells on the left or right half of the custom PCR plate. The PCR instrument was Applied Biosystems 7900HT fast real time PCR. […]

## CCCCOc1c(OCCCC)c(=O)c1=O [SADBE, 3,4-Dibutoxy-3-cyclobutene-1,2-dione]
HSV-infected cell extracts
  IFNB1 ratio of PBMC absolute gene expression day 57/day 1: 0.65
  IFNG ratio of PBMC absolute gene expression day 15/day 1: 1.26
  IFNG ratio of PBMC absolute gene expression day 57/day 1: 5.72
  IL1B ratio of PBMC absolute gene expression day 15/day 1: 1.48
  IL1B ratio of PBMC absolute gene expression day 57/day 1: 21.45
  IL1R1 ratio of PBMC absolute gene expression day 15/day 1: 0.89
  IL1R1 ratio of PBMC absolute gene expression day 57/day 1: 1.11
  IL1RN ratio of PBMC absolute gene expression day 15/day 1: 0.94
  IL1RN ratio of PBMC absolute gene expression day 57/day 1: 0.79
  IL2 ratio of PBMC absolute gene expression day 15/day 1: 0.98
  IL2 ratio of PBMC absolute gene expression day 57/day 1: 2.48
  IL4 ratio of PBMC absolute gene expression day 15/day 1: 0.77
  IL4 ratio of PBMC absolute gene expression day 57/day 1: 0.89
  IL5 ratio of PBMC absolute gene expression day 15/day 1: 0.83
  IL5 ratio of PBMC absolute gene expression day 57/day 1: 0.50
  IL8 ratio of PBMC absolute gene expression day 15/day 1: 0.99
  IL8 ratio of PBMC absolute gene expression day 57/day 1: 3.86
  IL10 ratio of PBMC absolute gene expression day 15/day 1: 1.19
  IL10 ratio of PBMC absolute gene expression day 57/day 1: 3.29
  IL12A ratio of PBMC absolute gene expression day 15/day 1: 0.90
  IL12A ratio of PBMC absolute gene expression day 57/day 1: 0.89
  IL12B ratio of PBMC absolute gene expression day 15/day 1: 0.80
  IL12B ratio of PBMC absolute gene expression day 57/day 1: 0.23
  IL13 ratio of PBMC absolute gene expression day 15/day 1: 1.01
  IL13 ratio of PBMC absolute gene expression day 57/day 1: 2.28
  IL15 ratio of PBMC absolute gene expression day 15/day 1: 0.93
  IL15 ratio of PBMC absolute gene expression day 57/day 1: 0.87
  IL16 ratio of PBMC absolute gene expression day 15/day 1: 1.03
  IL16 ratio of PBMC absolute gene expression day 57/day 1: 1.02
  JAK2 ratio of PBMC absolute gene expression day 15/day 1: 0.86
  JAK2 ratio of PBMC absolute gene expression day 57/day 1: 0.82
  LTA ratio of PBMC absolute gene expression day 15/day 1: 1.03
  LTA ratio of PBMC absolute gene expression day 57/day 1: 0.99
  LYZ ratio of PBMC absolute gene expression day 15/day 1: 0.73
  LYZ ratio of PBMC absolute gene expression day 57/day 1: 0.29
  MX1 ratio of PBMC absolute gene expression day 15/day 1: 0.89
  MX1 ratio of PBMC absolute gene expression day 57/day 1: 0.66
  NOD1 ratio of PBMC absolute gene expression day 15/day 1: 1.04
  NOD1 ratio of PBMC absolute gene expression day 57/day 1: 0.89
  SPP1 ratio of PBMC absolute gene expression day 15/day 1: 2.09
  SPP1 ratio of PBMC absolute gene expression day 57/day 1: 5.38
  STAT1 ratio of PBMC absolute gene expression day 15/day 1: 0.90
  STAT1 ratio of PBMC absolute gene expression day 57/day 1: 0.91
  STAT4 ratio of PBMC absolute gene expression day 15/day 1: 0.89
  STAT4 ratio of PBMC absolute gene expression day 57/day 1: 1.01
  TNF ratio of PBMC absolute gene expression day 15/day 1: 1.17
  TNF ratio of PBMC absolute gene expression day 57/day 1: 1.2
  TNFSF10 ratio of PBMC absolute gene expression day 15/day 1: 0.84
  TNFSF10 ratio of PBMC absolute gene expression day 57/day 1: 0.88
  TNFSF13B ratio of PBMC absolute gene expression day 15/day 1: 0.93
  TNFSF13B ratio of PBMC absolute gene expression day 57/day 1: 1.07
Neg. control
  CCL2 ratio of PBMC absolute gene expression day 15/day 1: 0.35
  CCL2 ratio of PBMC absolute gene expression day 57/day 1: 1.15
  CCL3 ratio of PBMC absolute gene expression day 15/day 1: 0.47
  CCL3 ratio of PBMC absolute gene expression day 57/day 1: 1.79
  CCL7 ratio of PBMC absolute gene expression day 15/day 1: 0.25
  CCL7 ratio of PBMC absolute gene expression day 57/day 1: 1.35
  CCR5 ratio of PBMC absolute gene expression day 15/day 1: 1.00
  CCR5 ratio of PBMC absolute gene expression day 57/day 1: 1.19
  CD80 ratio of PBMC absolute gene expression day 15/day 1: 0.66
  CD80 ratio of PBMC absolute gene expression day 57/day 1: 1.16
  CXCL2 ratio of PBMC absolute gene expression day 15/day 1: 0.51
  CXCL2 ratio of PBMC absolute gene expression day 57/day 1: 1.33
  CXCL5 ratio of PBMC absolute gene expression day 15/day 1: 0.36
  CXCL5 ratio of PBMC absolute gene expression day 57/day 1: 1.78
  CXCL9 ratio of PBMC absolute gene expression day 15/day 1: 2.50
  CXCL9 ratio of PBMC absolute gene expression day 57/day 1: 4.93
  CXCL10 ratio of PBMC absolute gene expression day 15/day 1: 0.94
  CXCL10 ratio of PBMC absolute gene expression day 57/day 1: 0.68
  CXCL11 ratio of PBMC absolute gene expression day 15/day 1: 0.62
  CXCL11 ratio of PBMC absolute gene expression day 57/day 1: 0.83
  DDX58 ratio of PBMC absolute gene expression day 15/day 1: 0.82
  DDX58 ratio of PBMC absolute gene expression day 57/day 1: 0.83
  FOXP3 ratio of PBMC absolute gene expression day 15/day 1: 0.95
  FOXP3 ratio of PBMC absolute gene expression day 57/day 1: 1.07
  GATA3 ratio of PBMC absolute gene expression day 15/day 1: 1.06
  GATA3 ratio of PBMC absolute gene expression day 57/day 1: 0.84
  ICAM1 ratio of PBMC absolute gene expression day 15/day 1: 1.10
  ICAM1 ratio of PBMC absolute gene expression day 57/day 1: 1.34
  IFNA1 ratio of PBMC absolute gene expression day 15/day 1: 1.20
  IFNA1 ratio of PBMC absolute gene expression day 57/day 1: 1.47
  IFNB1 ratio of PBMC absolute gene expression day 15/day 1: 0.99
  IFNB1 ratio of PBMC absolute gene expression day 57/day 1: 0.73
  IFNG ratio of PBMC absolute gene expression day 15/day 1: 1.05
  IFNG ratio of PBMC absolute gene expression day 57/day 1: 1.24
  IL1B ratio of PBMC absolute gene expression day 15/day 1: 0.16
  IL1B ratio of PBMC absolute gene expression day 57/day 1: 2.09
  IL1R1 ratio of PBMC absolute gene expression day 15/day 1: 1.00
  IL1R1 ratio of PBMC absolute gene expression day 57/day 1: 0.6
  IL1RN ratio of PBMC absolute gene expression day 15/day 1: 0.90
  IL1RN ratio of PBMC absolute gene expression day 57/day 1: 1.35
  IL2 ratio of PBMC absolute gene expression day 15/day 1: 0.80
  IL2 ratio of PBMC absolute gene expression day 57/day 1: 1.21
  IL4 ratio of PBMC absolute gene expression day 15/day 1: 0.86
  IL4 ratio of PBMC absolute gene expression day 57/day 1: 0.98
  IL5 ratio of PBMC absolute gene expression day 15/day 1: 0.99
  IL5 ratio of PBMC absolute gene expression day 57/day 1: 0.39
  IL8 ratio of PBMC absolute gene expression day 15/day 1: 0.62
  IL8 ratio of PBMC absolute gene expression day 57/day 1: 2.38
  IL10 ratio of PBMC absolute gene expression day 15/day 1: 0.90
  IL10 ratio of PBMC absolute gene expression day 57/day 1: 1.04
  IL12A ratio of PBMC absolute gene expression day 15/day 1: 0.84
  IL12A ratio of PBMC absolute gene expression day 57/day 1: 0.98
  IL12B ratio of PBMC absolute gene expression day 15/day 1: 0.40
  IL12B ratio of PBMC absolute gene expression day 57/day 1: 1.38
  IL13 ratio of PBMC absolute gene expression day 15/day 1: 0.88
  IL13 ratio of PBMC absolute gene expression day 57/day 1: 1.69
  IL15 ratio of PBMC absolute gene expression day 15/day 1: 0.95
  IL15 ratio of PBMC absolute gene expression day 57/day 1: 1.13
  IL16 ratio of PBMC absolute gene expression day 15/day 1: 1.06
  IL16 ratio of PBMC absolute gene expression day 57/day 1: 0.89
  JAK2 ratio of PBMC absolute gene expression day 15/day 1: 0.91
  JAK2 ratio of PBMC absolute gene expression day 57/day 1: 0.93
  LTA ratio of PBMC absolute gene expression day 15/day 1: 0.94
